The text below walks through data of ChEMBL document CHEMBL3232786, “Therapeutic utility of cannabinoid receptor type 2 (CB(2)) selective agonists” (J Med Chem, 2013).

Where only a bound is given, the exact number is not on record here.

One data set relates to Mus musculus. Kind of data set: Antinociceptive activity against iv dosed ICR mouse measured at 20 mins by tail flick test. The class given is functional. (In general: Thermal pain tests record how soon the animal reacts.)
In data set [1] the target is T1, Cannabinoid receptor 1 (Homo sapiens, UniProt P21554). Description: Agonist activity at human CB1 receptor expressed in CHO-K1 cells assessed as inhibition of forskolin-induced cAMP accumulation by TR-FRET assay. The class given is functional, cell-based. A general note: Changes in cAMP serve as a functional read-out for many G protein-coupled receptors.
Data set [2] deals with T2, Cannabinoid receptor 2 (Homo sapiens, UniProt P34972). Kind of data set: Agonist activity at human CB2 receptor expressed in CHO-K1 cells assessed as inhibition of forskolin-induced cAMP accumulation by TR-FRET assay. The format is functional, cell-based.
Data set [3] has as its target T1, Cannabinoid receptor 1. Description: Agonist activity at human CB1 receptor.
The target in data set [4] is T2, Cannabinoid receptor 2. Kind of data set: Agonist activity at human CB2 receptor.
The target in data set [5] is T1, Cannabinoid receptor 1. Kind of data set: Agonist activity at human CB1 receptor expressed in Saccharomyces cerevisiae MMY23 using fluorescein di-beta-D-glucopyranoside as substrate after 24 hrs by fluorescence-based assay.
The target in data set [6] is T2, Cannabinoid receptor 2. Kind of data set: Agonist activity at human CB2 receptor expressed in Saccharomyces cerevisiae MMY23 using fluorescein di-beta-D-glucopyranoside as substrate after 24 hrs by fluorescence-based assay.
For data set [7], the target named is T1, Cannabinoid receptor 1. Description: Agonist activity at CB1 receptor (unknown origin).
Data set [8] deals with T3, Cannabinoid receptor 2 (Rattus norvegicus, UniProt Q9QZN9).
T3 sequence (Q9QZN9 whole entry): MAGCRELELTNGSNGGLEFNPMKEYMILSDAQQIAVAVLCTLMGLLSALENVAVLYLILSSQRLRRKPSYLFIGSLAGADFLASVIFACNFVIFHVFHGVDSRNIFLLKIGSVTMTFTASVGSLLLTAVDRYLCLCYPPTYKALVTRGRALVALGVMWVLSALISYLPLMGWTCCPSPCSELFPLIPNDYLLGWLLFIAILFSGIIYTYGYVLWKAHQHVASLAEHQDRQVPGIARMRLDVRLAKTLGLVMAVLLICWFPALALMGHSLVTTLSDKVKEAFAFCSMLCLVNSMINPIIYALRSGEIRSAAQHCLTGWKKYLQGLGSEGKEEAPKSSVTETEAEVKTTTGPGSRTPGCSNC
Kind of data set: Inverse agonist activity at rat CB2 receptor expressed in CHO-K1 cells assessed as inhibition of forskolin-induced cAMP accumulation. The format is functional, cell-based.

The target of data set [9] is T4, Cannabinoid receptor 1 (Rattus norvegicus, UniProt P20272). Description: Displacement of [3H]-CP55940 from CB1 receptor of rat brain.
For data set [10], the target named is T1, Cannabinoid receptor 1. Description: Displacement of [3H]-CP55940 from human CB1 receptor by liquid scintillation counting. On the technique in general: Displacement assays read how much labelled ligand stays bound in the presence of the test substance.
The target in data set [11] is T2, Cannabinoid receptor 2. Kind of data set: Displacement of [3H]-CP55940 from human CB2 receptor expressed in HEK cells by liquid scintillation counting. The class given is cell-based, HEK293.
The target in data set [12] is T3, Cannabinoid receptor 2. Description: Displacement of [3H]-CP55940 from rat CB2 receptor expressed in CHO-K1 cells by liquid scintillation spectrophotometry. The format is cell-based.
The target in data set [13] is Cannabinoid receptor 2 (Mus musculus, UniProt P47936). Description: Displacement of [3H]-CP55940 from mouse CB2 receptor by liquid scintillation counting.
Data set [14] is described as follows: Displacement of [3H]-CP55940 from cynomolgus monkey CB2 receptor by liquid scintillation counting. On the set-up: species or system Macaca fascicularis.
The species named for a further data set is Homo sapiens. Description: Selectivity ratio of Ki for human CB1 receptor to Ki for human CB2 receptor.
Data set [15] addresses T2, Cannabinoid receptor 2. Description: Displacement of [3H]-CP55940 from human CB2 receptor expressed in CHO-K1 cells by liquid scintillation counting. The format is cell-based.
The target in data set [16] is T1, Cannabinoid receptor 1. Kind of data set: Displacement of [3H]-CP55940 from human CB1 receptor expressed in CHO-K1 cells by liquid scintillation counting. The class given is cell-based.
Data set [17] concerns Rattus norvegicus. Kind of data set: Antinociceptive activity in ip dosed skin incision rat model assessed as tactile allodynia administered 90 mins before skin incision measured after 30 mins. The format is functional.
Data set [18] is filed under the species Rattus norvegicus. Description: Antiinflammatory activity in rat chronic constriction injury model of neuropathic pain. The format is functional.
Data set [19] is filed under the species Rattus norvegicus. Description: Antiinflammatory activity in complete Freund's adjuvant-induced-rat. The format is functional.
For data set [20], the species on record is Rattus norvegicus. Description: Antiinflammatory activity in rat capsaicin-induced thermal hyperalgesia measured by paw withdrawal latency. The class given is functional.
In data set [21] the target is T2, Cannabinoid receptor 2. Description: Agonist activity at human CB2 receptor assessed as inhibition of forskolin-induced cAMP production preincubated for 15 mins followed by forskolin challenge measured after 30 mins by HTRF assay relative to control. The format is functional.
In data set [22] the target is T1, Cannabinoid receptor 1. Kind of data set: Agonist activity at human CB1 receptor assessed as inhibition of forskolin-induced cAMP production preincubated for 15 mins followed by forskolin challenge measured after 30 mins by HTRF assay. The format is functional.
Data set [23] concerns the target T2, Cannabinoid receptor 2. Description: Agonist activity at human CB2 receptor assessed as inhibition of forskolin-induced cAMP production preincubated for 15 mins followed by forskolin challenge measured after 30 mins by HTRF assay. The class given is functional.
Data set [24] has as its target T3, Cannabinoid receptor 2. Kind of data set: Displacement of [3H]-CP55940 from CB2 receptor of rat spleen membranes by liquid scintillation counting in presence of serine protease inhibitor PMSF. The format is tissue-based, Membrane.
For data set [25], the species on record is Rattus norvegicus. Kind of data set: Selectivity ratio of Ki for CB2 receptor of rat spleen membranes to Ki for CB1 receptor of rat cerebellar membranes. The class given is tissue-based.
Data set [26] addresses T4, Cannabinoid receptor 1. Description: Displacement of [3H]-CP55940 from CB1 receptor of rat cerebellar membranes by liquid scintillation counting in presence of serine protease inhibitor PMSF. More on the design: species or system Cerebellum, Membrane.
Data set [27] deals with T2, Cannabinoid receptor 2. Description: Agonist activity at human CB2 receptor expressed in human SK-N-MC cells by CRE-beta galactosidase reporter gene assay. The format is functional, cell-based.
Data set [28] has as its target T1, Cannabinoid receptor 1. Description: Agonist activity at human CB1 receptor expressed in human SK-N-MC cells by CRE-beta galactosidase reporter gene assay. The class given is functional, cell-based.
Data set [29] addresses T1, Cannabinoid receptor 1. Description: Agonist activity at human CB1 receptor expressed in human SK-N-MC cells at 1 uM by CRE-beta galactosidase reporter gene assay. The format is functional, cell-based.
The species named for data set [30] is Rattus norvegicus. Description: Selectivity ratio of Ki for rat CB1 receptor to Ki for rat CB2 receptor.
For data set [31], the species on record is Rattus norvegicus. Kind of data set: Antiinflammatory activity in rat assessed as reduction of FCA-induced pain. The class given is functional.
The nature of data set [32]: Oral bioavailability in rat. The format is ADME, organism-based. The conditions noted are these: in vivo.
Data set [33] deals with T3, Cannabinoid receptor 2. Description: Binding affinity to rat CB2 receptor.
Data set [34] can be described thus: Half life in rat. The class given is ADME, organism-based. The conditions noted are these: in vivo.
For data set [35], the system named is Rattus norvegicus. Description: Attenuation of chronic constriction injury in po dosed rat. The format is functional.

T1 sequence (P21554 whole entry): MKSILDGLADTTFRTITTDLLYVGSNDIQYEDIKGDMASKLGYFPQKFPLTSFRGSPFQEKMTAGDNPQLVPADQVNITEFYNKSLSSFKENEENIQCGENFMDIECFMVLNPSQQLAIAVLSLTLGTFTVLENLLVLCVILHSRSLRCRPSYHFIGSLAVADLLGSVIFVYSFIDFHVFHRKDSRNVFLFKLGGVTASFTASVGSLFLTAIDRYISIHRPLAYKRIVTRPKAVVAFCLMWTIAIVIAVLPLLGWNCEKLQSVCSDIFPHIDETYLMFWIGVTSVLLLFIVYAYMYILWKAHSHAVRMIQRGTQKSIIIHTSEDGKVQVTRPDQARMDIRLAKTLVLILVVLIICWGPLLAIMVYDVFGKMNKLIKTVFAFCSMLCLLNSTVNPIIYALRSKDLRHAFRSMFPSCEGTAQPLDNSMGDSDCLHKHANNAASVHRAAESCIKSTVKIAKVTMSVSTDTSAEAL
T2 sequence (P34972 whole entry): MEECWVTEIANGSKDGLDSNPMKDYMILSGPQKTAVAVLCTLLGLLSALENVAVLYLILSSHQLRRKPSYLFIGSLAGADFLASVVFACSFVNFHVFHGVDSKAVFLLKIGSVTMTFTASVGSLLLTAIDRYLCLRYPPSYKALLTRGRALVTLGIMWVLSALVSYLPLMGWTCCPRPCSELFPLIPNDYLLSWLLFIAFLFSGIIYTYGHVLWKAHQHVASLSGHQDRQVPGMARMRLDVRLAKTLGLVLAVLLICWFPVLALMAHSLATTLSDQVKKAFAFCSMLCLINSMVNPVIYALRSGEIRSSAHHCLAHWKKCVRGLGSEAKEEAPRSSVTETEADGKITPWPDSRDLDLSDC
T4 sequence (P20272 whole entry): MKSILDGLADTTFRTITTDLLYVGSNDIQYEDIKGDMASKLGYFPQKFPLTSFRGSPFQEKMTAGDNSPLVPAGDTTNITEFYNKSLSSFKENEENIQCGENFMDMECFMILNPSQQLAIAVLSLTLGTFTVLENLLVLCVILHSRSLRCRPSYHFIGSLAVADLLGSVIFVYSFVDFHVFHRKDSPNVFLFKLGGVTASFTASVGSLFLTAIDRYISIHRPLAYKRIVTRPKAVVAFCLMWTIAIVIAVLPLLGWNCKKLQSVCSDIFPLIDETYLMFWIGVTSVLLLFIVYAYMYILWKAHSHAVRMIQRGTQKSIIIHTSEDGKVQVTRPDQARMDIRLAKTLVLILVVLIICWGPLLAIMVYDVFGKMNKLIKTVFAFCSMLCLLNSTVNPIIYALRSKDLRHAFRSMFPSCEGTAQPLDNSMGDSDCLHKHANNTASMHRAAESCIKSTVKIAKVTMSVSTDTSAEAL
Cannabinoid receptor 2 (Mus musculus, UniProt P47936), sequence (P47936 whole entry): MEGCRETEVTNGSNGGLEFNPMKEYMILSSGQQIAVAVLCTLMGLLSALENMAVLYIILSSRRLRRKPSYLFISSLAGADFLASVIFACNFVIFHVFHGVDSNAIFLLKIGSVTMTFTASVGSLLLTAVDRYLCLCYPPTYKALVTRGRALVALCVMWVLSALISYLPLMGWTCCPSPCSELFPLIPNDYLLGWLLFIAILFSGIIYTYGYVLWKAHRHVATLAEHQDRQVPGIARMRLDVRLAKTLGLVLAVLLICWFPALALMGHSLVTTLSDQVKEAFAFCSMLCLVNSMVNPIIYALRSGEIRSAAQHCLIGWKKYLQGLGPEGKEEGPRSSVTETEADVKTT

`CCCCCc1cc(O)c2c(c1)OC(C)(C)[C@@H]1CCC(C)=C[C@@H]21` [DRONABINOL]: in the data set on Mus musculus, the 50% effect level (ED50) was put at a dose of 0.02 mg/kg.
On to `O=C(NC1CCCC1)c1ccc2c(c1)N(S(=O)(=O)c1ccc(F)cc1)CCS2`, for which the EC50 was found to be 10 nM on Cannabinoid receptor 1 [1] and 1 nM at Cannabinoid receptor 2 [2].
In the same order, the values of `CS(=O)(=O)N1CCc2c(cc(-c3cccc(Cl)c3)c(=O)n2CC2CCC2)C1` are greater than 10000 nM and less than 100 nM.
As to `COc1ccc2c(c1)c(CCN1CCOCC1)c(C)n2C(=O)c1cccc(Cl)c1Cl`, the Ki on Cannabinoid receptor 1 [3] came to 4800 nM; on Cannabinoid receptor 2 [4], 3.8 nM.
Turning to `O=C(NCc1ccncc1)c1cnc(Nc2cccc(Cl)c2)nc1C(F)(F)F`, the EC50 at Cannabinoid receptor 1 [5] is greater than 30 nM; on Cannabinoid receptor 2 [6] it was 50 nM.
At Cannabinoid receptor 1 [7], `CCc1c(C)cc(C(=O)NC2(C(=O)O)CCCCC2)c(=O)n1Cc1ccc(F)cc1` [S-777469] displayed a Ki of 4600 nM.
For `CN1CCCCC1Cn1cc(C(=O)c2cc([N+](=O)[O-])ccc2I)c2ccccc21` (racemic), on Cannabinoid receptor 2 [8], the 50% effective concentration (EC50) stood at 216 nM. For the same molecule, the Ki on Cannabinoid receptor 1 [9] came to 280 nM; on Cannabinoid receptor 1 [10] it was 580 nM; at Cannabinoid receptor 2 [11] it was 7.1 nM.
For the molecule `Cc1c2n(c(=O)c3cc(OC(=O)C(C)(C)C)cc(OC(=O)C(C)(C)C)c13)CCCC2`, the Ki worked out at 2.4 nM on Cannabinoid receptor 2 [12]; 4.8 nM on Cannabinoid receptor 2 [13]; 5.4 nM in data set [14]; 6.8 nM on Cannabinoid receptor 2 [15]; 2630 nM at Cannabinoid receptor 1 [16]. Also, in the data set filed under Homo sapiens, the Ratio Ki was determined as 450.
In the case of `CN1CCCC[C@@H]1Cn1cc(C(=O)c2cc([N+](=O)[O-])ccc2I)c2ccccc21`, at Cannabinoid receptor 2 [8], the 50% effective concentration (EC50) is 315 nM.
For `COCCn1c(C)c(C)s/c1=N\C(=O)C1C(C)(C)C1(C)C`, the ED50 in the data set on Rattus norvegicus [17] stood at 12 µmol/kg; in the data set filed under Rattus norvegicus [18], 12.9 µmol/kg; in the data set listed under Rattus norvegicus [19] it was 1.96 µmol/kg; in the data set listed under Rattus norvegicus [20], 10.4 µmol/kg.
Consider `CC(NC(=O)c1nc(N2CCOCC2)n2ccccc12)C(C)(C)C` (centres undefined), for which the Emax at Cannabinoid receptor 2 [21] stood at 99.5%. Further, the values for the EC50 on Cannabinoid receptor 1 [22] and at Cannabinoid receptor 2 [23] were greater than 17000 nM and 5.4 nM, respectively. Moreover, the Ratio Ki in the data set listed under Homo sapiens is greater than 3100.
With `CCCCC/C=C\C/C=C\C/C=C\C/C=C\CCCC(=O)NC1CC1`, the Ki on Cannabinoid receptor 2 [24] amounted to 715 nM; at Cannabinoid receptor 1 [26], 2.2 nM. For the same molecule, the Ratio Ki in the data set listed under Rattus norvegicus [25] is 325.
On to `O=C(N[C@H](CO)c1ccccc1)c1n[nH]c2c1CCCC[C@H]2Cc1cccc(Cl)c1`, for which the EC50 is 12 nM at Cannabinoid receptor 2 [27] and greater than 5000 nM on Cannabinoid receptor 1 [28].
For `O=C(NCC12CC3CC(CC(C3)C1)C2)c1nn(C2CCCCC2)c2c1CCCCCC2`, the Activity on Cannabinoid receptor 1 [29] is 71%.
For `CC(C)(C)NC(=O)c1nn(-c2ccc(F)cc2F)c2c1[C@H]1CC[C@@H]2C1` [TEDALINAB], the Ratio Ki in the data set listed under Rattus norvegicus [30] was determined as 20; in the data set filed under Homo sapiens it was 80. In addition, the figures for the ED50 in the data set filed under Rattus norvegicus [31] and in the data set with Rattus norvegicus [35] were 1.67 mg/kg and 2.15 mg/kg, respectively. Moreover, the EC50 at Cannabinoid receptor 1 [22] is 854 nM; on Cannabinoid receptor 2 [23], 0.61 nM. The same molecule registered a bioavailability in [32] of 48%. For the same molecule, at Cannabinoid receptor 2 [33], the Ki is 12 nM. Moreover, the half-life in [34] was 5.78 h.

What is called ED50 is the midpoint of the dose-response relation. Broadly, the EC50 is the concentration giving half of the maximal effect. One may read the Ki as a measure of affinity in units of concentration, obtained from inhibition or displacement. As usually defined, the Emax is the greatest response seen or fitted, relative to the assay's reference. Usually bioavailability stands for dose-corrected exposure relative to a reference, in per cent. The term half-life denotes the time in which the quantity being followed falls by half.
